Read-outs that look alike come from different tables or passages of the source.
Molecular target: T1, human somatostatin receptor subtype 5 (Homo sapiens, UniProt P35346)
T1 construct: expressed in transfected cells
Test: cAMP assay for SST5R (inhibition of cAMP in CHO-K1 cells)
Assay type: cell-based
Conditions: for EC50: inhibition of cAMP via human SST5 receptor, read-out: SST5 potency
Text: General overview: All five SSTR subtypes are Gi coupled G-protein coupled receptors (GPCRs) that lead to decreases in intracellular cyclic AMP (cAMP) when activated by an agonist. Therefore, measurement of intracellular cAMP levels can be used to assess whether compounds of the invention are agonists of SSTR subtypes (John Kelly, Troy Stevens, W. Joseph Thompson, and Roland Seifert, Current Protocols in Pharmacology, 2005, 2.2.1-2.2). One example of an intracellular cAMP assay is described below.
cAMP Assay Protocol for SST5R:
Four days prior to the assay, 2,000 Chinese hamster ovary cells (CHO-K1, ATCC #CCL-61) stably expressing the human somatostatin receptor subtype 5 are plated in each well of a 96-well tissue culture-treated plate in Ham's F12 growth media (ThermoFisher #10-080-CM) supplemented with 10% donor bovine serum (Gemini Bio-Products #100-506), 100 U/mL penicillin; 100 µg/mL streptomycin; 2 mM L-glutamine (Gemini Bio-Products #400-110) and 0.25 mg/mL G418 Sulfate (GoldBio #108321-42-2). The cells are cultured at 37° C., 5% CO2 and 95% humidity. On the day of the assay, the media is aspirated and the cells are treated with 50 μL of 1.6 μM NKH477 (Sigma #N3290) plus various dilutions of compounds of the invention in assay buffer [1× Hank's Balanced Salt Solution (ThermoFisher #SH3058802), 0.5 mM HEPES pH 7.4, 0.1% bovine serum albumin, 0.2 mM 3-Isobutyl-1-methylxanthine (IBMX, VWR #200002-790)]. The cells are incubated for 20 minutes at 37° C. […] The cells are treated with 50 μL of lysis buffer (HRTF cAMP kit, Cisbio) for 30 minutes and then the lysate is diluted to 250 μL with assay buffer. The lysate is transferred to 384-well plates and cAMP detection and visualization antibodies are added and incubated for 1-24 hours at room temperature. The time-resolved fluorescent signal is read with a Tecan M1000Pro multiplate reader. The intracellular cAMP concentrations are calculated by regression to a standard curve and are plotted vs. the concentration of the compounds of the invention and the EC50 of the compounds are calculated using standard methods. All data manipulations are in GraphPad Prism v6 or v7.

T1 sequence (P35346 whole entry): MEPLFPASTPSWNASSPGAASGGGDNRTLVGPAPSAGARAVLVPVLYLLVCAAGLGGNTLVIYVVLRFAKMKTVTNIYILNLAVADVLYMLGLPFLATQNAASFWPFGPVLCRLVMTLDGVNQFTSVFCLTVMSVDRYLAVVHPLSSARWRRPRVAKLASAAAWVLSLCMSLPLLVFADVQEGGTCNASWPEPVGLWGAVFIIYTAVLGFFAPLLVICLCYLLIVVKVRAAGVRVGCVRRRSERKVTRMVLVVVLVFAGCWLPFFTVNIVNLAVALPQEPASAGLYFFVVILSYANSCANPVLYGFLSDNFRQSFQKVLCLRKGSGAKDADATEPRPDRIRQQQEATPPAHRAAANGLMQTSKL

SMILES | EC50 (Table A) [nM] | Fold selectivity for SST5 vs SST2 (Table B, class symbols, SST5 receptor over SST2 receptor) | EC50 (Table B) [nM]
Cc1cccc2[nH]c(-c3cncc(C(=O)N(C)C4CCCC4)c3N3CC[C@](C)(N)C3)nc12 [2-16, 4-[(3S)-3-amino-3-methylpyrrolidin-1-yl]-N-cyclopentyl-N-methyl-5-(4-methyl-1H-1,3-benzodiazol-2-yl)pyridine-3-carboxamide] | < 10 | – | –
Cc1ncc(C(=O)N[C@@H](C)C2CC2)c(N2CC[C@](C)(N)C2)c1-c1cnn(C)c1 [1-148, 4-[(3S)-3-amino-3-methylpyrrolidin-1-yl]-N-[(1S)-1-cyclopropylethyl]-6-methyl-5-(1-methyl-1H-pyrazol-4-yl)pyridine-3-carboxamide] | < 10 | – | –
Cc1cccc2[nH]c(-c3cncc(C(=O)N[C@H](C)C(F)(F)F)c3N3CC[C@](C)(N)C3)nc12 [2-18, 4-[(3S)-3-amino-3-methylpyrrolidin-1-yl]-5-(4-methyl-1H-1,3-benzodiazol-2-yl)-N-[(2R)-1,1,1-trifluoropropan-2-yl]pyridine-3-carboxamide] | < 10 | – | –
C[C@H](NC(=O)c1cncc(-c2nc3c(F)cccc3[nH]2)c1N1CC[C@](C)(N)C1)C(F)(F)F [2-24, 4-[(3S)-3-amino-3-methylpyrrolidin-1-yl]-5-(4-fluoro-1H-1,3-benzodiazol-2-yl)-N-[(2S)-1,1,1-trifluoropropan-2-yl]pyridine-3-carboxamide] | < 10 | – | –
Cc1cccc2[nH]c(-c3cncc(C(=O)N4CCC5(CC5)C4)c3N3CC[C@](C)(N)C3)nc12 [2-39, (3S)-1-(3-{5-azaspiro[2.4]heptane-5-carbonyl}-5-(4-methyl-1H-1,3-benzodiazol-2-yl)pyridin-4-yl)-3-methylpyrrolidin-3-amine] | 10 to 100 | – | –
Cc1cc(C)cc(-c2cncc(C(=O)NC3CCCC(F)(F)C3)c2N2CC[C@](C)(N)C2)c1 (stereo partly drawn) [1-14, 4-[(3S)-3-amino-3-methylpyrrolidin-1-yl]-N-(3,3-difluorocyclohexyl)-5-(3,5-dimethylphenyl)pyridine-3-carboxamide] | < 10 | – | –
C[C@]1(N)CCN(c2c(C(=O)NCC3CC3(F)F)cncc2-c2cc(F)cc(F)c2)C1 (stereo partly drawn) [1-42, 4-[(3S)-3-amino-3-methylpyrrolidin-1-yl]-N-[(2,2-difluorocyclopropyl)methyl]-5-(3,5-difluorophenyl)pyridine-3-carboxamide] | < 10 | – | –
Cc1cccc2[nH]c(-c3cncc(C(=O)NC4CCOC4)c3N3CC[C@](C)(N)C3)nc12 (stereo partly drawn) [2-5, 4-[(3S)-3-amino-3-methylpyrrolidin-1-yl]-5-(4-methyl-1H-1,3-benzodiazol-2-yl)-N-(oxolan-3-yl)pyridine-3-carboxamide] | 100 to 1000 | – | –
N[C@H]1CCN(c2c(C(=O)NC3CCC(F)(F)CC3)cnc(OCC(=O)O)c2-c2cc(F)cc(F)c2)C1 [1-203, 2-({4-[(3S)-3-aminopyrrolidin-1-yl]-5-[(4,4-difluorocyclohexyl)carbamoyl]-3-(3,5-difluorophenyl)pyridin-2-yl}oxy)acetic acid] | < 10 | – | –
Cc1ncc(C(=O)NC2CC(F)(F)C2)c(N2CC[C@](C)(N)C2)c1-c1cc(F)cc(F)c1 [1-146, 4-[(3S)-3-amino-3-methylpyrrolidin-1-yl]-N-(3,3-difluorocyclobutyl)-5-(3,5-difluorophenyl)-6-methylpyridine-3-carboxamide] | < 10 | – | –
C[C@H](NC(=O)c1ncc(C#N)c(-c2cc(F)cc(F)c2)c1N1CC[C@](C)(N)C1)C1CC1 [4-3, 3-[(3S)-3-amino-3-methylpyrrolidin-1-yl]-5-cyano-N-[(1S)-1-cyclopropylethyl]-4-(3,5-difluorophenyl)pyridine-2-carboxamide] | < 10 | – | –
C[C@]1(N)CCN(c2c(C(=O)NC3CC3)cncc2-c2cc(F)cc(F)c2)C1 [1-23, 4-[(3S)-3-amino-3-methylpyrrolidin-1-yl]-N-cyclopropyl-5-(3,5-difluorophenyl)pyridine-3-carboxamide] | 10 to 100 | – | –
Cc1cccc2[nH]c(-c3cncc(C(=O)NC4CC4)c3N3CC[C@](C)(N)C3)nc12 [2-12, 4-[(3S)-3-amino-3-methylpyrrolidin-1-yl]-N-cyclopropyl-5-(4-methyl-1H-1,3-benzodiazol-2-yl)pyridine-3-carboxamide] | 10 to 100 | – | –
CC1(NC(=O)c2cncc(-c3cccc(C#N)c3)c2N2CC[C@H](N)C2)CCC1 [1-8, 4-[(3S)-3-aminopyrrolidin-1-yl]-5-(3-cyanophenyl)-N-(1-methylcyclobutyl)pyridine-3-carboxamide] | 100 to 1000 | – | –
C[C@]1(N)CCN(c2c(C(=O)N[C@H]3C[C@H](F)C3)cncc2-c2cc(F)cc(F)c2)C1 [1-55] | < 10 | – | –
CC(C)C(NC(=O)c1cncc(-c2cc(F)cc(F)c2)c1N1CC[C@](C)(N)C1)C(C)C [1-39, 4-[(3S)-3-amino-3-methylpyrrolidin-1-yl]-5-(3,5-difluorophenyl)-N-(2,4-dimethylpentan-3-yl)pyridine-3-carboxamide] | 100 to 1000 | – | –
C[C@H](NC(=O)c1cnc(C(F)(F)F)c(-c2ccc(F)c(F)c2)c1N1CC[C@](C)(N)C1)C1CC1 [1-209, 4-[(3S)-3-amino-3-methylpyrrolidin-1-yl]-N-[(1S)-1-cyclopropylethyl]-5-(3,4-difluorophenyl)-6-(trifluoromethyl)pyridine-3-carboxamide] | < 10 | +++ (+++=>500) | < 10
C[C@H](NC(=O)c1cnc(OC2CC2)c(-c2cc(F)cc(F)c2)c1N1CC[C@](C)(N)C1)C1CC1 [1-191, 4-[(3S)-3-amino-3-methylpyrrolidin-1-yl]-6-cyclopropoxy-N-[(1S)-1-cyclopropylethyl]-5-(3,5-difluorophenyl)pyridine-3-carboxamide] | < 10 | – | –
C[C@]1(N)CCN(c2c(C(=O)NCC3CC(F)(F)C3)cncc2-c2cc(F)cc(F)c2)C1 [1-50, 4-[(3S)-3-amino-3-methylpyrrolidin-1-yl]-N-[(3,3-difluorocyclobutyl)methyl]-5-(3,5-difluorophenyl)pyridine-3-carboxamide] | < 10 | – | –
C[C@@H](NC(=O)c1cnc(C#N)c(-c2cc(F)cc(F)c2)c1N1CC[C@@H](N)C1)C(F)(F)F [1-227, 4-[(3R)-3-aminopyrrolidin-1-yl]-6-cyano-5-(3,5-difluorophenyl)-N-[(2R)-1,1,1-trifluoropropan-2-yl]pyridine-3-carboxamide] | 100 to 1000 | – | –
Cc1cc(F)cc(-c2cncc(C(=O)NCC3CC3)c2N2CC[C@](C)(N)C2)c1 [1-26, 4-[(3S)-3-amino-3-methylpyrrolidin-1-yl]-N-(cyclopropylmethyl)-5-(3-fluoro-5-methylphenyl)pyridine-3-carboxamide] | < 10 | – | –
C[C@@H](C1CC1)N(C)C(=O)c1cnc(C#N)c(-c2cc(F)cc(F)c2)c1N1CC[C@](C)(N)C1 [1-219, 4-[(3S)-3-amino-3-methylpyrrolidin-1-yl]-6-cyano-N-[(1S)-1-cyclopropylethyl]-5-(3,5-difluorophenyl)-N-methylpyridine-3-carboxamide] | < 10 | – | –
Cc1cccc2[nH]c(-c3cncc(C(=O)N4C[C@@H](C)O[C@@H](C)C4)c3N3CC[C@](C)(N)C3)nc12 [2-28, (3S)-1-{3-[(2R,6S)-2,6-dimethylmorpholine-4-carbonyl]-5-(4-methyl-1H-1,3-benzodiazol-2-yl)pyridin-4-yl}-3-methylpyrrolidin-3-amine] | 10 to 100 | – | –
C[C@]1(N)CCN(c2c(C(=O)N[C@@H]3CCCC[C@H]3F)cncc2-c2cc(F)cc(F)c2)C1 (mixture of isomers) [1-52, 4-[(3S)-3-amino-3-methylpyrrolidin-1-yl]-5-(3,5-difluorophenyl)-N-[trans-2-fluorocyclohexyl]pyridine-3-carboxamide] | < 10 | – | –
CC(NC(=O)c1cnc(C#N)c(-c2cc(F)cc(F)c2)c1N1CCC(N)C1)C(F)(F)F (centres unmarked) [1-225, 4-(3-aminopyrrolidin-1-yl)-6-cyano-5-(3,5-difluorophenyl)-N-(1,1,1-trifluoropropan-2-yl)pyridine-3-carboxamide] | < 10 | – | –
N#Cc1cccc(-c2cncc(C(=O)NCc3ccccc3)c2N2CC[C@H](N)C2)c1 [1-9, 4-[(3S)-3-aminopyrrolidin-1-yl]-N-benzyl-5-(3-cyanophenyl)pyridine-3-carboxamide] | 100 to 1000 | – | –
CC(C)C(NC(=O)c1cncc(-c2cc(F)cc(F)c2)c1N1CC[C@](C)(N)C1)C(F)(F)F (stereo partly drawn) [1-45, 4-[(3S)-3-amino-3-methylpyrrolidin-1-yl]-5-(3,5-difluorophenyl)-N-(1,1,1-trifluoro-3-methylbutan-2-yl)pyridine-3-carboxamide] | < 10 | – | –

— patent publication US12600709B2, “Nonpeptide somatostatin type 5 receptor agonists and uses thereof” (Crinetics Pharmaceuticals, Inc., priority 2019, dated 2026)
